Values of other authors, collected in patent US20230285287A1, “PHARMACEUTICAL COMPOSITIONS” (DOUGLAS PHARMACEUTICALS LIMITED, priority 2019, published 2023).
Entries after “also recorded” stand apart in the source; their conditions may differ.

Conditions: known from the literature (Donato et al.)

CC(C)c1nc(CN(C)C(=O)N[C@H](C(=O)N[C@@H](Cc2ccccc2)C[C@H](O)[C@H](Cc2ccccc2)NC(=O)OCc2cncs2)C(C)C)cs1 [Ritonavir, 1,3-thiazol-5-ylmethyl N-[(2S,3S,5S)-3-hydroxy-5-[[(2S)-3-methyl-2-[[methyl-[(2-propan-2-yl-1,3-thiazol-4-yl)methyl]carbamoyl]amino]butanoyl]amino]-1,6-diphenylhexan-2-yl]carbamate]
chemical stability / degradation route: thermolytically driven; also recorded: particularly prone to hydrolysis; also recorded: oxygen labile
